Data on two compounds can be found in paper PMC9653733, “Characterization of a Potent, Selective, and Safe Inhibitor, Ac15(Az8)2, in Reversing Multidrug Resistance Mediated by Breast Cancer Resistance Protein (BCRP/ABCG2)” (International Journal of Molecular Sciences, 2022).

One series deals with T1, P-gp (LCC6MDR cells) (Homo sapiens, UniProt P08183).
T1 construct: expressed in transfected cells; host or cells: LCC6MDR (human breast cancer line)
Put plainly: Reversal of P-gp-mediated paclitaxel resistance in LCC6MDR. It counts as cell-based. Particulars: value without asterisk; read-out: EC50 needed for reversing P-gp-mediated paclitaxel resistance, LCC6MDR.

Series [1] can be described thus: Pharmacokinetics of Ac15(Az8)2 in mice. It counts as in vivo. The conditions noted are these: female, Balb/c, mouse, ip, 45 mg/kg I.P., plasma. The procedure:
(§1) Ac15(Az8)2 and topotecan in plasma were analyzed by UPLC–MS/MS. UPLC (Acquity Waters) and triple quadrupole mass analyzer (Quattro Ultima) with an electrospray ionization source in the positive mode were used to quantify Ac15(Az8)2 and topotecan. Acquity UPLC BEH C8 and C18 column (1.7 µm 2.1 × 50 mm) from Waters was used to separate Ac15(Az8)2 and topotecan, respectively. Mobile phases used for Ac15(Az8)2 analysis were water and acetonitrile. Ac15(Az8)2 and its internal standard Ac15(Az5)2 (Figure S2) were monitored at m/z 608 → m/z 149 and m/z 594 → […], respectively. Mobile phases used for topotecan analysis were water and methanol. Topotecan and its internal standard tetracycline were monitored at m/z 422 → m/z 377 and m/z 445 → m/z 410, respectively.
(§2) Female Balb/c mice at 4–6 weeks were used for the pharmacokinetic studies. Ac15(Az8)2 at 4 mg/mL was prepared in 10% NMP, 10% Cremophor-EL and 80% H2O. Topotecan was dissolved in H2O at 1 mg/mL, and 45 mg/kg Ac15(Az8)2 was administered through intraperitoneal (I.P.) injection. Blood was collected at 10, 30, 60, 70, 90, 120, 180, 240, 300, 480, 720 and 1440 min by cardiac puncture and stored in heparinized tubes for centrifugation at 16,000 g for 5 min. For topotecan pharmacokinetic study, 2 mg/kg topotecan was I.P. administered one hour after 45 mg/kg Ac15(Az8)2 or solvent injection. Blood was collected at 10, 30, 60, 120, 240 and 480 min post-topotecan administration. All animal studies were approved by the Animal Subjects Ethics Sub-committee of the Hong Kong Polytechnic University and performed in accordance with the Cap340 Animal License of the Department of Health in Hong Kong.

A further series deals with T2, BCRP (Homo sapiens, UniProt Q9UNQ0, R482G).
T2 construct: endogenous in cells; host or cells: S1M180 (human colon carcinoma, mitoxantrone-selected)
T2 sequence (Q9UNQ0 1-655 R482G): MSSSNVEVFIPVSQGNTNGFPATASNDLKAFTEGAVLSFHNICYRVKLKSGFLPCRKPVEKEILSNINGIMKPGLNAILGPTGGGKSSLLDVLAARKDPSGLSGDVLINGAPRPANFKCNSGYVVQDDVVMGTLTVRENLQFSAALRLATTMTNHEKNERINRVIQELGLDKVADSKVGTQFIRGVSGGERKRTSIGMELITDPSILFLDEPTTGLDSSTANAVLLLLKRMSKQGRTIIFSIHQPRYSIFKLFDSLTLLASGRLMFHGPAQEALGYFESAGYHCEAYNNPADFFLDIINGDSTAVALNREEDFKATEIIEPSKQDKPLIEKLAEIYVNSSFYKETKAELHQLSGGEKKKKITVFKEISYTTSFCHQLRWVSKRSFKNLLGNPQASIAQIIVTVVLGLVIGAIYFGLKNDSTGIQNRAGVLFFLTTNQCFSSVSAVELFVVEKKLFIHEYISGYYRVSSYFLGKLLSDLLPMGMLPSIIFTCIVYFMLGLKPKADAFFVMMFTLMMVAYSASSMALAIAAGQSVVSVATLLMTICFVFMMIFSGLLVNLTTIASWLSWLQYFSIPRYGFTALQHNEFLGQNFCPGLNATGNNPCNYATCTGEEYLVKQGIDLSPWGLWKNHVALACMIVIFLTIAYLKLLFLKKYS
The experiment in a line: Intracellular Ac15(Az8)2 level in S1 and S1M180 (BCRP substrate test, UPLC-MS/MS). In kind it is cell-based. The procedure:
Figure 2 Effect of Ac15(Az8)2 on intracellular accumulation of BCRP-substrates in S1 and S1M180 cells. Cells were pre-treated with 0.1% DMSO, 100 nM, or 1000 nM Ac15(Az8)2 and then incubated with BCRP substrates. (A) Topotecan accumulation. (B) DOX accumulation. The intracellular level of drug after treatment was normalized to that of S1 cells after incubating with 0.1% DMSO. Student unpaired two-tailed t-test was conducted as indicated (** p < 0.01, *** p < 0.001). (C) To measure DOX efflux, S1M180 cells were pre-incubated with medium containing 20 μM DOX for 1 h at 37 °C. Cells were then washed and further incubated with or without 1 µM of Ac15(Az8)2. At 0, 5, 10, 30, 60, 120, and 180 min, the cells were harvested to measure the intracellular DOX level. (D) To determine intracellular Ac15(Az8)2 concentration, 1 × 10^7 cells were incubated with 1 µM of Ac15(Az8)2 at 37 °C for 2 h. Cells were then washed with ice-cold PBS. To the cell pellet, acetonitrile was added to lyse the cells, and the supernatant was saved for Ac15(Az8)2 determination using UPLC–MS/MS.
BCRP is an efflux transporter with broad substrate selectivity. In order to study whether Ac15(Az8)2 is itself a substrate of BCRP, its intracellular level was measured after treating the S1 or S1M180 cells for 2 h.

A short description of series [2]: Pharmacokinetics of topotecan in mice with or without Ac15(Az8)2. In kind it is in vivo. Particulars: female, Balb/c, mouse, plasma, ip, topotecan 2 mg/kg I.P.; for AUC(0-inf) / Cmax / half-life: 2 mg/kg; for half-life: read-out: Half-life (E-phase) of topotecan (converted). How it is done: as §1, §2
[3] abbreviates: 45 mg/kg Ac15(Az8)2 I.P. one hour prior.

T1 sequence (P08183 whole entry): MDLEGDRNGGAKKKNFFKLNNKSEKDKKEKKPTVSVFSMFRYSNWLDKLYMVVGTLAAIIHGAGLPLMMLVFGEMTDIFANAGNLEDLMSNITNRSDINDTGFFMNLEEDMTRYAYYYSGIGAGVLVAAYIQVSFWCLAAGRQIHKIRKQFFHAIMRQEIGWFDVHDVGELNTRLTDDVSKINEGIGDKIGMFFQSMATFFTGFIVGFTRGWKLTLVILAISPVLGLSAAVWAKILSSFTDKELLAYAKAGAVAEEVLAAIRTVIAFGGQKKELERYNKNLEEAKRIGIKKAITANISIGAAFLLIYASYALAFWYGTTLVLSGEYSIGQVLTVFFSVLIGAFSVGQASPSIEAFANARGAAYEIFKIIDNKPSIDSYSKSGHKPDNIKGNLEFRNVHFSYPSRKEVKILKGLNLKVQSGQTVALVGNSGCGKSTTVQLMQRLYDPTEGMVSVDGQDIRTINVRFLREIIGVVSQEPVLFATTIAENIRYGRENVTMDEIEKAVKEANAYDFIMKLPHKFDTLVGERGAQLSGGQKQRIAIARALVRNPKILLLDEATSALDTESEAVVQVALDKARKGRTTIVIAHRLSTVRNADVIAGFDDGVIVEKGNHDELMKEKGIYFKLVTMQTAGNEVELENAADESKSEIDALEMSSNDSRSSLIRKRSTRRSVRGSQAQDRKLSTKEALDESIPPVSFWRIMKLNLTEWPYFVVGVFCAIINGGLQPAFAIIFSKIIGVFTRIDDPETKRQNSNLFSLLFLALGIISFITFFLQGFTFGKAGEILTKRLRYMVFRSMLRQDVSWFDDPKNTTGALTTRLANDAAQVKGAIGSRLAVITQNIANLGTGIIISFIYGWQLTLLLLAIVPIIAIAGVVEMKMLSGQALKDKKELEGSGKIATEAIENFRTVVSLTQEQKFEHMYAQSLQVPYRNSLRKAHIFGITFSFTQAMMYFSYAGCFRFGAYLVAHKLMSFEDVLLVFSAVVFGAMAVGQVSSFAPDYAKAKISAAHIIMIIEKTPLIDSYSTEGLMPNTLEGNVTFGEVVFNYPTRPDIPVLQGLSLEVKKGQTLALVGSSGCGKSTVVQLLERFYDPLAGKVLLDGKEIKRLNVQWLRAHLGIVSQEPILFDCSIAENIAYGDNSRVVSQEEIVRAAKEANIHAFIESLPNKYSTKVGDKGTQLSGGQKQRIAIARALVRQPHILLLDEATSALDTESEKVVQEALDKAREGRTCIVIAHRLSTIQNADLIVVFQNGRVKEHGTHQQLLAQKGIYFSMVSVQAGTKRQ

One may read the EC50 as the concentration that produces a half-maximal response. By AUC(0-inf) is commonly meant the area under the concentration-time curve extrapolated to infinity. Low readings indicate less exposure, high ones more exposure. In general, Cmax refers to the peak of the concentration-time curve. By Tmax is commonly meant the time from dosing to the highest level. A word on the half-life: it is the time needed for the level to fall by half in the phase considered. Regarding `COC(=O)c1cccc(COc2c(-c3ccc(OCCOCCn4cc(CN(Cc5ccccc5)Cc5cn(CCOCCOc6ccc(-c7oc8ccccc8c(=O)c7OCc7cccc(C(=O)OC)c7)cc6)nn5)nn4)cc3)oc3ccccc3c2=O)c1` [Ac15(Az8)2], the EC50 on P-gp (LCC6MDR cells) is > 3 µM. In series [1], the AUC(0-inf) worked out at 83500 ng·h/mL, the peak level (Cmax) was 15700 ng/mL and the Tmax is 3 h. In series [1] (read-out: Half-life (E-phase) (converted)), the half-life is 636 min. The “Intracellular level of Ac15(Az8)2 in S1M180 higher than in S1” value at BCRP (1 µM, 2 h, 37 °C) is reported as “about 20%”. For the same compound, the “Transport substrate of BCRP” value on BCRP (from intracellular levels in S1 vs S1M180) is “not a transport substrate of BCRP”.

Take `CC[C@@]1(O)C(=O)OCc2c1cc1n(c2=O)Cc2cc3c(CN(C)C)c(O)ccc3nc2-1` [topotecan]: in series [2] (setting [3]), the AUC(0-inf) was determined as 8700 ng·h/mL, the peak concentration (Cmax) amounted to 4400 ng/mL, the half-life is 96 min and the Tmax was found to be 1 h. In series [2] (Ac15(Az8)2 0 mg/kg (solvent)), the AUC(0-inf) was 4400 ng·h/mL, the Cmax was 2900 ng/mL and the half-life is 78 min.
